The values that follow are results of earlier work, collected in US20150275302A1, “DETERMINATION OF SINGLE NUCLEOTIDE POLYMORPHISMS USEFUL TO PREDICT RESPONSE FOR RASAGILINE” (TEVA PHARMACEUTICAL INDUSTRIES, LTD., priority 2014, published 2015).

The conditions of the series: in vivo.

For the molecule `C#CCN[C@@H]1CCc2ccccc21` [rasagiline, R(+)-N-propargyl-l-aminoindan], the absolute bioavailability result is recorded as “about 36%”.
